Earlier results, collected in patent US20030215406A1, “Cosmetic or dermatological preparations containing aminogaunidine, derivatives thereof or structural analogs thereof” (Beiersdorf AG, priority 2000, published 2003).

For `N=C(N)NN` [Aminoguanidine], the solubility in alcohol (solvent: alcohol) is given as “soluble”, the solubility in ether (solvent: ether) is given as “insoluble” and the solubility in water (solvent: water) is given as “soluble”.
